The subject of this assay is inflammatory pain. Briefly: Randall-Selitto test in rats (carrageenin-induced paw oedema, pressure pain). The format is in vivo, rat. As for the experimental part: The weight ratios of the components (a) and (b) that will lead to a supra-additive effect (synergistic effect) of the inventive pharmaceutical composition may be determined via the test of Randall and Selitto as described in Arch. Int. Pharmacodyn., 1957, 111: 409 to 419, which is a model for inflammatory pain. The respective part of the literature is hereby incorporated by reference and forms part of the present disclosure.
By means of injection of 0.1 ml of Carrageenin-suspension ventrally into a hind paw of a rat an oedema is induced, on which pain is generated 4 hours later by continuously increasing pressure with a stamp (2 mm tip diameter). The antinociceptive and antihyperalgesic activity of the tested substance is determined at different points in time after administration of the substance. The measured value to be determined and at the same time also the end point of the pain test is the pressure at which the vocalisation reaction of the rat occurs. The percentage maximum possible effect (%MPE) is calculated. The maximum pressure of the stamp is 250 g. The group size is n=10.
The interactions studies presented herein were performed using equieffective doses of the two components, calculated from the ratio of the respective ED50 values of the components if administered alone. […]
(In general: The carrageenan paw model is a standard test of acute inflammation.)

In the case of `CC[C@@H](c1cccc(O)c1)[C@@H](C)CN(C)C` [A, (1R,2R)-3-(3-Dimethylamino-1-ethyl-2-methyl-propyl)-phenol], for the setting “Rattus norvegicus, iv, 0.25 h, i.v., 15 min p. appl. (peak effect), %MPE, vocalisation pressure, n=10, read-out: ED50 (confidence interval) of A applied alone”, the ED50 was determined as 1.88 mg/kg.

Take `CC(=O)Nc1ccc(O)cc1` [Paracetamol]: where the note is “Paracetamol alone, i.p.”, the “analgesic effect (in words)” value is given as “dose-dependent analgesic effect”.

What is called ED50 is the midpoint of the dose-response relation.

The values are drawn from US20160128952A1, “Pharmaceutical Combination” (Gruenenthal GmbH, priority 2006, published 2016).
